Experimental findings from article PMC8119466, “A screen of FDA-approved drugs identifies inhibitors of protein tyrosine phosphatase 4A3 (PTP4A3 or PRL-3)” (Scientific Reports, 2021) are described below.

Counter-ions that a name gives are not always drawn. Like-named read-outs stand apart in the source and are kept apart here.

Type in all cases: biochemical
One assay addresses T1, recombinant PRL-3 (Homo sapiens, UniProt O75365).
T1 construct: 6xHis (N, cleaved yes); made in house; host or cells: E. coli One Shot BL21 Star
The assay can be described thus: In vitro phosphatase assay (DiFMUP hydrolysis), PRL-3. Further: test concentration or dose not given here.

The target in the next assay is T2, recombinant PRL-2 (Homo sapiens, UniProt Q12974).
T2 construct: 6xHis (N, cleaved yes); made in house; host or cells: E. coli One Shot BL21 Star
T2 sequence (Q12974 1-167): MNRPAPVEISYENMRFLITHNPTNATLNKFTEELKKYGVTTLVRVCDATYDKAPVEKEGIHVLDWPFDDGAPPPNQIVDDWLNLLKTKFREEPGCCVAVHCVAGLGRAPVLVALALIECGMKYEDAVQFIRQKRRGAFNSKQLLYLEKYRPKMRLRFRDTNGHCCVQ
Description: In vitro phosphatase assay (DiFMUP hydrolysis), PRL-2.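 Further: PRL-2 activity read as DiFMUP hydrolysis after 20 min at room temperature with drug, enzyme first pre-reduced at 4 °C for 20 min.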

Another assay concerns the target T3, recombinant PRL-1 (Homo sapiens, UniProt Q93096).
T3 construct: 6xHis (N, cleaved yes); made in house; host or cells: E. coli One Shot BL21 Star
T3 sequence (Q93096 1-173): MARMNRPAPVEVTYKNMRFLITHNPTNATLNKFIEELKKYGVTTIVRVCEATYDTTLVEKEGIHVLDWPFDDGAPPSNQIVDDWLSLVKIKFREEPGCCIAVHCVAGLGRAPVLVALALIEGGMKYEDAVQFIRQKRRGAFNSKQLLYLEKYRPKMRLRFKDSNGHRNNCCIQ
Description: In vitro phosphatase assay (DiFMUP hydrolysis), PRL-1. Further: test concentration or dose not given here.

Setting [1] is: FDA-approved drug screen, compared to DMSO.

T1 sequence (O75365 whole entry): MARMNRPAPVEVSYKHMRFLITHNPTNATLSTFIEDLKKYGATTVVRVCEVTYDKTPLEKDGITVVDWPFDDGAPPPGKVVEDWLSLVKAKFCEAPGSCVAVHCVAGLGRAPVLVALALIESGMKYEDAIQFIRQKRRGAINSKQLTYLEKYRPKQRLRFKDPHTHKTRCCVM

With `CC(C)OC(=O)C(C)(C)Oc1ccc(C(=O)c2ccc(Cl)cc2)cc1` [Fenofibrate], the “% Phosphatase Activity (compared to DMSO) PRL-3” value at recombinant PRL-3 (setting [1]) was determined as 101%. In addition, the “% Phosphatase Activity (compared to DMSO) PRL-2” value on recombinant PRL-2 (setting [1]) is listed as 89%. For the same molecule, the “% Phosphatase Activity (compared to DMSO) PRL-1” value at recombinant PRL-1 (setting [1]) is 88%.
Taken in the same sequence, the figures for `CC(C)(Oc1ccc(C(=O)c2ccc(Cl)cc2)cc1)C(=O)O` [Fenofibric acid] were 109%, 122% and 104%.
As for `CS(=O)(=O)O.Oc1ccc(C2CNCCc3c2cc(O)c(O)c3Cl)cc1` (stereo not drawn) [Fenoldopam (mesylate)], the “% Phosphatase Activity (compared to DMSO) PRL-3” value on recombinant PRL-3 (setting [1]) was 96%. In addition, the “% Phosphatase Activity (compared to DMSO) PRL-2” value on recombinant PRL-2 (setting [1]) turned out to be 102%. Moreover, the “% Phosphatase Activity (compared to DMSO) PRL-1” value at recombinant PRL-1 (setting [1]) is listed as 108%.
For `CC(C(=O)[O-])c1cccc(Oc2ccccc2)c1.CC(C(=O)[O-])c1cccc(Oc2ccccc2)c1.[Ca+2]` (stereo not drawn) [Fenoprofen Calcium] the same measures were 95%, 80% and 82%.
Taken in the same sequence, the figures for `O=C1NCC2(CCN(CCc3ccccc3)CC2)O1` [Fenspiride HCl] were 104%, 101% and 90%.
For `Clc1ccc(C(Cn2ccnc2)OCc2ccc(Sc3ccccc3)cc2)c(Cl)c1` (stereo not drawn) [Fenticonazole Nitrate] the same measures were 110%, 117% and 107%.
For `CC(C)C(=O)Oc1ccc(CO)cc1[C@H](CCN(C(C)C)C(C)C)c1ccccc1` [Fesoterodine Fumarate], the “% Phosphatase Activity (compared to DMSO) PRL-3” value on recombinant PRL-3 (setting [1]) amounted to 95%. Also, the “% Phosphatase Activity (compared to DMSO) PRL-2” value at recombinant PRL-2 (setting [1]) came out at 100%. Further, the “% Phosphatase Activity (compared to DMSO) PRL-1” value on recombinant PRL-1 (setting [1]) came to 89%.
Consider `CC(C)(C(=O)O)c1ccc(C(O)CCCN2CCC(C(O)(c3ccccc3)c3ccccc3)CC2)cc1` (stereo not drawn) [Fexofenadine HCl], for which the “% Phosphatase Activity (compared to DMSO) PRL-3” value at recombinant PRL-3 is on record as 89%. Besides, the “% Phosphatase Activity (compared to DMSO) PRL-2” value at recombinant PRL-2 was found to be 92%. Also, the “% Phosphatase Activity (compared to DMSO) PRL-1” value at recombinant PRL-1 is listed as 109%.
With `CCc1c(Cl)c(O)c(Cl)c(O)c1C(=O)O[C@H]1[C@H](O)[C@H](OC)[C@H](OC/C2=C\C=C\C[C@H](O)/C(C)=C/[C@H](CC)[C@@H](O[C@@H]3OC(C)(C)[C@@H](OC(=O)C(C)C)[C@H](O)[C@@H]3O)/C(C)=C/C(C)=C/C[C@@H]([C@@H](C)O)OC2=O)O[C@@H]1C` [Fidaxomicin], on recombinant PRL-3 (setting [1]), the “% Phosphatase Activity (compared to DMSO) PRL-3” value amounted to 62%. The “% Phosphatase Activity (compared to DMSO) PRL-2” value on recombinant PRL-2 (setting [1]) was 63%. Further, on recombinant PRL-1 (setting [1]), the “% Phosphatase Activity (compared to DMSO) PRL-1” value came to 85%.
Taken in the same sequence, the figures for `O=C(Nc1nc2cccc(-c3ccc(CN4CCS(=O)(=O)CC4)cc3)n2n1)C1CC1` [Filgotinib (GLPG0634)] were 92%, 81% and 102%.
Taken in the same sequence, the figures for `CC(C)(C)NC(=O)[C@H]1CC[C@H]2[C@@H]3CC[C@H]4NC(=O)C=C[C@]4(C)[C@H]3CC[C@]12C` [Finasteride] were 81%, 87% and 93%.
For the molecule `CCCCCCCCc1ccc(CCC(N)(CO)CO)cc1.Cl` [Fingolimod (FTY720) HCl], the “% Phosphatase Activity (compared to DMSO) PRL-3” value on recombinant PRL-3 (setting [1]) was 116%. Also, on recombinant PRL-2 (setting [1]), the “% Phosphatase Activity (compared to DMSO) PRL-2” value amounted to 95%. On recombinant PRL-1 (setting [1]), the “% Phosphatase Activity (compared to DMSO) PRL-1” value is given as 104%.
For `CN1CC[C@H](c2c(O)cc(O)c3c(=O)cc(-c4ccccc4Cl)oc23)[C@H](O)C1` [Flavopiridol (Alvocidib)] the same measures were 68%, 82% and 92%.
As for `Cc1c(-c2ccccc2)oc2c(C(=O)OCCN3CCCCC3)cccc2c1=O` [Flavoxate HCl], the “% Phosphatase Activity (compared to DMSO) PRL-3” value on recombinant PRL-3 (setting [1]) was 113%. For the same molecule, on recombinant PRL-2 (setting [1]), the “% Phosphatase Activity (compared to DMSO) PRL-2” value was found to be 109%. In addition, the “% Phosphatase Activity (compared to DMSO) PRL-1” value at recombinant PRL-1 (setting [1]) turned out to be 103%.
Take `CS(=O)(=O)c1ccc([C@@H](O)[C@@H](CF)NC(=O)C(Cl)Cl)cc1` [Florfenicol]: the “% Phosphatase Activity (compared to DMSO) PRL-3” value on recombinant PRL-3 (setting [1]) is given as 75%. In addition, the “% Phosphatase Activity (compared to DMSO) PRL-2” value on recombinant PRL-2 (setting [1]) is reported as 111%. Further, the “% Phosphatase Activity (compared to DMSO) PRL-1” value on recombinant PRL-1 (setting [1]) is given as 100%.
`O=c1[nH]c(=O)n([C@H]2C[C@H](O)[C@@H](CO)O2)cc1F` [Floxuridine]: the “% Phosphatase Activity (compared to DMSO) PRL-3” value at recombinant PRL-3 (setting [1]) came out at 70%. In addition, the “% Phosphatase Activity (compared to DMSO) PRL-2” value on recombinant PRL-2 (setting [1]) was determined as 100%. For the same molecule, the “% Phosphatase Activity (compared to DMSO) PRL-1” value on recombinant PRL-1 (setting [1]) was 93%.
